In BindingDB's records for doi:10.7270/Q2ZG6QNM (University of Pittsburgh, 2008):

What follows are compounds tested against T1, Serine/threonine-protein kinase D1 (Homo sapiens, UniProt Q15139) (assay: fluorescence polarization artefacts, biochemical, 57K campaign, artefact control, dose response (AID 1342)).
T1 sequence (Q15139 whole entry): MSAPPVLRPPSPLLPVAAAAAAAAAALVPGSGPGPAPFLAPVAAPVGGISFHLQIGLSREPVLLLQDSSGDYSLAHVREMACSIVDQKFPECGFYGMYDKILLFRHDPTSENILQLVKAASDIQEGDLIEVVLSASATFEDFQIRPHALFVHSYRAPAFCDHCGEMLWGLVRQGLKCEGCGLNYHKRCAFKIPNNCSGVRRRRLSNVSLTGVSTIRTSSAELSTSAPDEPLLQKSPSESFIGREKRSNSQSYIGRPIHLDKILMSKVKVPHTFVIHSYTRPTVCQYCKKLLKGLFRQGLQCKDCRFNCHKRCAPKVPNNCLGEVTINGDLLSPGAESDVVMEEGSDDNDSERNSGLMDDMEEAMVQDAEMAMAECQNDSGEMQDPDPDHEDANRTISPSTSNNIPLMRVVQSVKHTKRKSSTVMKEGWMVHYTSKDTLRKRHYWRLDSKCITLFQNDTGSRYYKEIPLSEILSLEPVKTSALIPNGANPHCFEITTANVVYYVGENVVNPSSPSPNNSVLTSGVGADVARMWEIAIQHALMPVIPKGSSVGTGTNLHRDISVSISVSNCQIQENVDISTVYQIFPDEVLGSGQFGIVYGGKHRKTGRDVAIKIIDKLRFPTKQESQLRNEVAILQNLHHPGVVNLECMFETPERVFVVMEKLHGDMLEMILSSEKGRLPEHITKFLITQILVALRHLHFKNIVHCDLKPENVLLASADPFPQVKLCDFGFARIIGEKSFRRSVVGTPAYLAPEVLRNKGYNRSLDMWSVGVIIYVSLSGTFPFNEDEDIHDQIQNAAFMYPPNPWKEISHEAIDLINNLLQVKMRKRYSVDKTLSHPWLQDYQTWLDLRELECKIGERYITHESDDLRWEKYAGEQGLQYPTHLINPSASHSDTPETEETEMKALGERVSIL

Row | Structure (SMILES) | IC50
1 | CSc1ccccc1C(=O)NCc1ccc(F)cc1 | > 50 µM
2 | O=C(CSc1ccc2nnc(-c3cccnc3)n2n1)c1ccccc1 [1-phenyl-2-[[3-(3-pyridinyl)-[1,2,4]triazolo[4,3-b]pyridazin-6-yl]thio]ethanone] | > 50 µM
3 | CCOC(=O)c1sc(=NC(=O)CCS(=O)(=O)c2ccccc2)n(C)c1C [2-[3-(benzenesulfonyl)-1-oxopropyl]imino-3,4-dimethyl-5-thiazolecarboxylic acid ethyl ester] | > 50 µM
4 | CCCc1cc(=O)[nH]c(SCCCCN2C(=O)c3ccccc3C2=O)n1 [2-[4-[(4-oxidanylidene-6-propyl-1H-pyrimidin-2-yl)sulfanyl]butyl]isoindole-1,3-dione] | > 50 µM
5 | Cc1c(C#N)c(N)nc(Cl)c1C#N [2-amino-6-chloro-4-methyl-3,5-pyridinedicarbonitrile] | > 50 µM
6 | CC(N=Nc1ncc(Cl)cc1Cl)c1ccccn1 (stereo not drawn) [3,5-dichloro-N-(1-pyridin-2-ylethylideneamino)pyridin-2-amine] | 16.7 µM
7 | O=C1CSCN1c1cc(Cl)ccc1Cl [3-(2,5-dichlorophenyl)-1,3-thiazolan-4-one] | > 50 µM
8 | O=C(O)c1cc(C(=O)C2CCCCC2)c[nH]1 [4-(cyclohexylcarbonyl)-1H-pyrrole-2-carboxylic acid] | > 50 µM
9 | CC1Cc2ccccc2N1c1ncnc(N)c1[N+](=O)[O-] (stereo not drawn) [6-(2-methyl-2,3-dihydro-1H-indol-1-yl)-5-nitro-4-pyrimidinamine] | > 50 µM
10 | Cc1cc(NC(=O)CCC(=O)N(Cc2ccco2)C(C(=O)NCC2CCCO2)c2ccncc2)no1 (stereo not drawn) [N'-(furan-2-ylmethyl)-N-(5-methyl-1,2-oxazol-3-yl)-N'-[2-oxidanylidene-2-(oxolan-2-ylmethylamino)-1-pyridin-4-yl-ethyl]butanediamide] | > 50 µM
11 | O=C(CSc1ccncc1)Nc1ccc2ccccc2c1 [N-naphthalen-2-yl-2-pyridin-4-ylsulfanylacetamide] | > 50 µM
12 | Cn1cccc1C(=O)NC(=O)COC(=O)c1cc(S(=O)(=O)N2CCCCC2)ccc1Cl [[2-[(1-methylpyrrol-2-yl)carbonylamino]-2-oxidanylidene-ethyl] 2-chloranyl-5-piperidin-1-ylsulfonyl-benzoate] | > 50 µM

Other lines, results leading:

Row | IC50 | Structure (SMILES)
13 | > 50 µM | O=[N+]([O-])c1ccc(Nc2c3ccccc3nc3ccccc23)cc1 [MLS000723809]
14 | > 50 µM | COc1ccc(Cn2c(=O)[nH]c3cc(C(=O)NC4CCCC4)ccc3c2=O)cc1 [MLS000730065]
15 | > 50 µM | O=C(NNC1=Nc2cccc3cccc1c23)c1ccc(Br)cc1 [SMR000260645]
16 | > 50 µM | O=C(Nc1ccccc1C(=O)N1CCCC1)C1COc2ccccc2O1 (stereo not drawn) [SMR000287780]
17 | > 50 µM | COC(=O)c1c(NC(=O)C2C3CCC(C3)C2C(=O)O)sc2c1CCCCC2 (stereo not drawn) [SMR000298221]
18 | > 50 µM | COc1ccc(CNC(=O)C2Cc3ccccc3CN2C(=O)c2ccco2)cc1 (stereo not drawn) [SMR000343177]
